Consider eight molecules from PMC10304372, “T-705-Derived Prodrugs Show High Antiviral Efficacies against a Broad Range of Influenza A Viruses with Synergistic Effects When Combined with Oseltamivir” (Pharmaceutics, 2023).

Each structure is given as a SMILES string. Where two headings read alike, the source gives them in different places.

One data set deals with A/Victoria/03/75 (H3N2). In kind it is cell-based, influenza A virus.
The next data set has as its system MDCKII cells. The settings on record: for concentration from which considerable cell cytotoxicity was caused: dog.
For the next data set, the system named is A/Vietnam/1194/04 (H5N1). The data set can be described thus: microbe, parasite or virus in culture. Format: cell-based, influenza A virus. The settings on record: for IC90: read-out: IC90 (90% inhibitory effect on viral replication), H5N1.
A further data set can be described thus: in vitro. The settings on record: dog.
For data set [1], the system named is A/Hamburg/NY1580/09 (H1N1). Briefly: microbe, parasite or virus in culture. Format: cell-based, influenza A virus. The settings on record: for IC50: read-out: IC50 H1N1.
A further data set concerns A/Anhui/1/13 (H7N9). Briefly: microbe, parasite or virus in culture. In kind it is cell-based, influenza A virus. The settings on record: for IC50: read-out: IC50 H7N9.
The next data set concerns H5N1 HPAIV. Format: cell-based, influenza A virus.
The test system of data set [2] is RdRP subunit PA (polymerase acidic protein). The settings on record: cited from earlier work.
The mark [3] stands for this setting: Influenza A virus, H5N1, MDCK-II, 24 h, read-out: IC50 H5N1.
Setting [4] is: Influenza A virus, H1N1, MDCK-II, 24 h.
The mark [5] stands for this setting: Influenza A virus, H7N9, MDCK-II, 24 h.
Setting [6] is: Influenza A virus, H5N1, MDCK-II.

Take `NC(=O)c1nc(F)c[nH]c1=O` [1a, T-705]: in the data set with A/Victoria/03/75 (H3N2), the “reduction of virus replication” value is listed as “approximately 1.5 logs”. In the data set with MDCKII cells, the “effect on cell viability (in words)” value is reported as “did not affect cell viability”. The IC50 stood at 1140 nM in the data set on A/Vietnam/1194/04 (H5N1) (setting [3]); 1140 ± 1170 nM in the data set with A/Vietnam/1194/04 (H5N1) (read-out: IC50 H5N1); 1290 nM in data set [1] (setting [4]); 1300 ± 1400 nM in data set [1]; 790 ± 540 nM with A/Anhui/1/13 (H7N9) (setting [5]). The CC50 in “in vitro” is more than 50000 nM.
Take `NC(=O)c1ncc[nH]c1=O` [1b, T-1105, reference compound]: the “reduction of virus replication” value in the data set on A/Victoria/03/75 (H3N2) is “approximately 1.5 logs”.
For the molecule `NC(=O)c1nccn([C@@H]2O[C@H](CO)[C@@H](O)[C@H]2O)c1=O` [2a, T-1106], the “antiviral activity against H3N2 IAV (in words)” value (“antiviral activity … (in words)” below) in the data set on A/Victoria/03/75 (H3N2) was “slightly higher activity compared to T-1105 1b”.
Regarding `CCCCCCCCCC(=O)Oc1ccc(COP(=O)(OCc2ccc(OC(=O)CCCCCCCCC)cc2)OP(=O)(O)OC[C@H]2O[C@@H](n3ccnc(C(N)=O)c3=O)[C@H](O)[C@@H]2O)cc1` [3a], in the data set on A/Victoria/03/75 (H3N2), the “antiviral activity … (in words)” value is listed as “reduced viral titers to the limit of detection”. The “concentration from which considerable cell cytotoxicity was caused” value (“concentration” for short) in the data set on MDCKII cells is not below 30 µM. Besides, in the data set on A/Vietnam/1194/04 (H5N1), the “IC1 (1% inhibitory effect on viral replication), H5N1” value worked out at 0.0005 µM; the “IC10 (10% inhibitory effect on viral replication), H5N1” value came out at 13.2 nM; the “SI (selectivity index) H5N1” value stood at 373.7; the “reduction of H5N1 virus titers to the limit of detection (in words)” value is listed as “to the limit of detection”. In addition, the IC50 in the data set with A/Vietnam/1194/04 (H5N1) (setting [3]) worked out at 220 nM. For the same molecule, the IC50 with A/Vietnam/1194/04 (H5N1) (Influenza A virus, H5N1, MDCK-II, read-out: IC50, H5N1, as used for combination treatment) was 267 nM. Also, the IC90 with A/Vietnam/1194/04 (H5N1) (setting [6]) was 5400 nM. For the same molecule, the IC50 with A/Vietnam/1194/04 (H5N1) (read-out: IC50 H5N1) stood at 224 ± 230 nM. The same molecule showed a CC50 in the data set “in vitro” of more than 50000 nM. Besides, the “interaction with oseltamivir against H5N1 (in words)” value with H5N1 HPAIV is listed as “strong synergistic effect”. In addition, in data set [1], the “SI (selectivity index) H1N1” value worked out at 643.9 and the “increase in antiviral activity compared to 1a (T-705), H1N1” value amounted to 10 fold. Besides, the IC50 in data set [1] (setting [4]) is 130 ± 140 nM. Moreover, in the data set on A/Anhui/1/13 (H7N9), the “SI (selectivity index) H7N9” value came to 1179.0, the “more active than 1a against H7N9” value was determined as 10 fold, the “reduction of H7N9 virus titers to the limit of detection (in words)” value is “to the limit of detection” and the IC50 was 71 ± 90 nM. Besides, the IC50 with A/Anhui/1/13 (H7N9) (setting [5]) was determined as 70 nM.
Take `CCCCCCCCCCCCCCC(=O)Oc1ccc(COP(=O)(OCc2ccc(OC(=O)CCCC)cc2)OP(=O)(O)OC[C@H]2O[C@@H](n3ccnc(C(N)=O)c3=O)[C@H](O)[C@@H]2O)cc1` (stereo partly drawn) [3b]: the “antiviral activity … (in words)” value in the data set with A/Victoria/03/75 (H3N2) is recorded as “reduced viral titers to the limit of detection”. Also, the “concentration” value with MDCKII cells is given as not below 30 µM. Moreover, in the data set on A/Vietnam/1194/04 (H5N1), the “SI (selectivity index) H5N1” value turned out to be 850.9 and the “reduction of H5N1 virus titers to the limit of detection (in words)” value is recorded as “to the limit of detection”. Further, in the data set on A/Vietnam/1194/04 (H5N1) (setting [3]), the half-maximal inhibitory concentration (IC50) was 120 nM. For the same molecule, in the data set on A/Vietnam/1194/04 (H5N1) (read-out: IC50 H5N1), the IC50 stood at 116 ± 13 nM. In the data set “in vitro”, the CC50 was more than 50000 nM. In data set [1], the “SI (selectivity index) H1N1” value amounted to 66.4 and the IC50 is 1490 ± 2360 nM. The IC50 in data set [1] (setting [4]) worked out at 1490 nM. In addition, in the data set with A/Anhui/1/13 (H7N9), the “SI (selectivity index) H7N9” value worked out at 158.2, the “antiviral activity against H7N9 compared to 1a (comparable or fold reduced)” value is given as “comparable”, the “reduction of H7N9 virus titers to the limit of detection (in words)” value is “to the limit of detection” and the IC50 was determined as 624 ± 1040 nM. In the data set with A/Anhui/1/13 (H7N9) (setting [5]), the IC50 was 620 nM.
Regarding `CCCCCCCCCC(=O)Oc1ccc(COP(=O)(OCc2ccc(OC(=O)CCCCCCCCC)cc2)OP(=O)(O)OP(=O)(O)OC[C@H]2O[C@@H](n3ccnc(C(N)=O)c3=O)[C@H](O)[C@@H]2O)cc1` [4a, T-1106-C9C9-TriPPPro], the “antiviral activity … (in words)” value with A/Victoria/03/75 (H3N2) is “modest reduction in viral replication”. The “concentration” value in the data set on MDCKII cells is not below 30 µM. In addition, in the data set on A/Vietnam/1194/04 (H5N1), the “SI (selectivity index) H5N1” value was determined as 460.2. Moreover, the IC50 with A/Vietnam/1194/04 (H5N1) (setting [3]) came to 310 nM; in the data set with A/Vietnam/1194/04 (H5N1) (read-out: IC50 H5N1), 314 ± 380 nM; in data set [1] (setting [4]), 3320 nM; in data set [1], 3320 ± 4410 nM; with A/Anhui/1/13 (H7N9) (setting [5]), 2020 ± 1230 nM. This molecule also had a CC50 in the data set “in vitro” of more than 50000 nM. Besides, in data set [1], the “SI (selectivity index) H1N1” value was 43.6. Besides, in the data set on A/Anhui/1/13 (H7N9), the “SI (selectivity index) H7N9” value is 71.5. In the data set with A/Anhui/1/13 (H7N9), the “antiviral activity against H7N9 compared to 1a (comparable or fold reduced)” value is listed as 2.5 fold.
As to `O=C1c2c(O)c(=O)ccn2N([C@@H]2c3ccccc3SCc3c2ccc(F)c3F)[C@@H]2COCCN12` [Baloxavir, baloxavir], the “inhibitory activity on PA of various IAV subtypes incl. H5N1 and H7N9 (in words)” value in data set [2] is “pico- to nanomolar activity”.
Turning to `CCOC(=O)C1=C[C@@H](OC(CC)CC)[C@H](NC(C)=O)[C@@H](N)C1` [oseltamivir], in the data set with A/Vietnam/1194/04 (H5N1), the “IC1 (1% inhibitory effect on viral replication), H5N1” value amounted to 0.00002 µM and the “IC10 (10% inhibitory effect on viral replication), H5N1” value was 0.5 nM. In addition, the IC50 with A/Vietnam/1194/04 (H5N1) (Influenza A virus, H5N1, MDCK-II, 24 h, read-out: IC50 H5N1 (oseltamivir)) was 8 nM. Moreover, the IC90 in the data set on A/Vietnam/1194/04 (H5N1) (setting [6]) amounted to 127 nM. This molecule also gave a CC50 in the data set “in vitro” of more than 100000 nM.
